Experimental data as given in patent US10165779B2, “Substituted pyrazolylpyrazole derivative and use of same as herbicide” (KYOYU AGRI CO., LTD., priority 2015, dated 2019).

How the values were obtained:
Type in all cases: in vivo
Chenopodium album [1] = test: Weed foliar treatment test (Test 3, 1.0 to 2.0 leaf stage); conditions: foliar spray at 1.0 to 2.0 leaf stage of Digitaria ciliaris, 3 weeks
Protocol: (§1) Soil was filled into a 1/6000 are pot followed by seeding with Digitaria ciliaris, Chenopodium album and Amaranthus retroflexus, covering with soil, and cultivating in a glass greenhouse at an average atmospheric temperature of 25° C.
(§2) Wettable powders of Target Compound (I) shown in Table 1 prepared in compliance with the preparation examples were diluted with water to the prescribed amount of chemical and uniformly sprayed onto the weeds using 150 liters of sprayed water per 10 are when Digitaria ciliaris had grown to the 1.0 to 2.0 leaf stage.
(§3) After treating for 3 weeks in a glass greenhouse at an average atmospheric temperature of 25° C., the herbicidal efficacy thereof was investigated.
(§4) Evaluation of herbicidal efficacy was carried out in the same manner as the above-mentioned Test Example 1.

Digitaria ciliaris [2] = test: as above; conditions: foliar spray at 1.0 to 2.0 leaf stage of Digitaria ciliaris, 3 weeks
Protocol: as §1, §2, §3, §4

Amaranthus retroflexus [3] = test: as above; conditions: foliar spray at 1.0 to 2.0 leaf stage of Digitaria ciliaris, 3 weeks
Protocol: as §1, §2, §3, §4

Oryza sativa = test: Paddy herbicidal activity test, phytotoxicity to transplanted rice; conditions: rice transplanted at 2.0 leaf stage, 30 days
Protocol: (§5) After treating for 30 days in a glass greenhouse at an average atmospheric temperature of 30° C., the herbicidal efficacy thereof was investigated. Evaluation of herbicidal efficacy was carried out by comparing growth inhibition rate (%) with an untreated group, while evaluation of phytotoxicity was carried out by comparing growth inhibition rate (%) with the state of a complete eradication group, and were evaluated at 11 levels indicated below. […] 2: 20% to less than 30% 3: 30% to less than 40% 4: 40% to less than 50% 5: 50% to less than 60% 6: 60% to less than 70% 7: 70% to less than 80% […]

Chenopodium album [4] = test: Farming soil treatment test; conditions: soil surface spray prior to weed growth, 30 days
Protocol: (§6) Field soil was filled into a 1/6000 are pot followed by seeding with Digitaria cilaris, Chenopodium album and Amaranthus retroflexus and covering with soil.
(§7) Wettable powders of compounds of formula (I) shown in Table 1 prepared in compliance with the preparation examples were diluted. with water to the prescribed amount of chemical and uniformly sprayed onto each soil surface layer using 100 liters of sprayed water per 10 are prior to weed growth following seeding.
(§8) After treating for 30 days in a glass greenhouse at an average atmospheric temperature of 30° C., the herbicidal efficacy thereof was investigated.
as §4

Digitaria ciliaris [5] = test: Farming soil treatment test; conditions: soil surface spray prior to weed growth, 30 days
Protocol: as §6, §7, §8, §4

Amaranthus retroflexus [6] = test: Farming soil treatment test; conditions: soil surface spray prior to weed growth, 30 days
Protocol: as §6, §7, §8, §4

Galinsoga parviflora = test: Weed foliar treatment test (Test 4, 4.0 to 5.0 leaf stage); conditions: 10 g a.i./10a; foliar spray at 4.0 to 5.0 leaf stage of Digitaria ciliaris; 20 days
Protocol: (§9) Field soil was filled into a 1/4500 are pot followed by seeding with Digitaria ciliaris and Galinsoga parviflora, covering with soil and cultivating in a glass greenhouse at an average atmospheric temperature of 25° C.
as §2, with “100” for “150”, “4.0” for “1.0”, “5.0” for “2.0”, “stage (plant height: 10 cm to 15 cm).” for “stage.”
(§10) After treating for 20 days in a glass greenhouse at an average atmospheric temperature of 25° C., the herbicidal efficacy thereof was investigated.
as §4

Digitaria ciliaris [7] = test: as above; conditions: 10 g a.i./10a; foliar spray at 4.0 to 5.0 leaf stage of Digitaria ciliaris (plant height 10 cm to 15 cm); 20 days
Protocol: as §9
as §2, with “100” for “150”, “4.0” for “1.0”, “5.0” for “2.0”, “stage (plant height: 10 cm to 15 cm).” for “stage.”
as §10, §4

Scirpus juncoides = test: Paddy herbicidal activity test; conditions: irrigated paddy pot, 30 days
Protocol: as §5

Monochoria vaginalis = test: Paddy herbicidal activity test; conditions: irrigated paddy pot, 30 days
Protocol: as §5

Echinochloa crus-galli = test: Paddy herbicidal activity test; conditions: irrigated paddy pot, treated at 3.5 leaf stage of Echinochloa crus-galli, 30 days
Protocol: as §5

Row | Compound | herbicidal efficacy Chenopodium album (Chenopodium album [1]; 5g a.i./10a) | herbicidal efficacy Chenopodium album (Chenopodium album [1]; 10g a.i./10a) | herbicidal efficacy Digitaria ciliaris (Digitaria ciliaris [2]; 5g a.i./10a) | herbicidal efficacy Digitaria ciliaris (Digitaria ciliaris [2]; 10g a.i./10a) | herbicidal efficacy Amaranthus retroflexus (Amaranthus retroflexus [3]; 5g a.i./10a) | herbicidal efficacy Amaranthus retroflexus (Amaranthus retroflexus [3]; 10g a.i./10a) | phytotoxicity Oryza sativa (Oryza sativa; 1g a.i./10a) | phytotoxicity Oryza sativa (Oryza sativa; 5g a.i./10a) | herbicidal efficacy Chenopodium album (Chenopodium album [4]; 5g a.i./10a) | herbicidal efficacy Chenopodium album (Chenopodium album [4]; 10g a.i./10a) | herbicidal efficacy Digitaria ciliaris (Digitaria ciliaris [5]; 5g a.i./10a) | herbicidal efficacy Digitaria ciliaris (Digitaria ciliaris [5]; 10g a.i./10a) | herbicidal efficacy Amaranthus retroflexus (Amaranthus retroflexus [6]; 5g a.i./10a) | herbicidal efficacy Amaranthus retroflexus (Amaranthus retroflexus [6]; 10g a.i./10a) | herbicidal efficacy Galinsoga parviflora (Galinsoga parviflora) | herbicidal efficacy Digitaria ciliaris (Digitaria ciliaris [7]) | herbicidal efficacy Scirpus juncoides (Scirpus juncoides; 1g a.i./10a) | herbicidal efficacy Scirpus juncoides (Scirpus juncoides; 5g a.i./10a) | herbicidal efficacy Monochoria vaginalis (Monochoria vaginalis; 1g a.i./10a) | herbicidal efficacy Monochoria vaginalis (Monochoria vaginalis; 5g a.i./10a) | also measured
1 | C=CCOC(=O)N(C(=O)OCC=C)c1c(C#N)cnn1-c1nn2c(c1Cl)CCCC2 [Compound 14] | 10 (10: 100%) | 10 (10: 100%) | 10 (10: 100%) | 10 (10: 100%) | 10 (10: 100%) | 10 (10: 100%) | 1 (1: 10% to less than 20%) | 1 (1: 10% to less than 20%) | 9 (9: 90% to less than 100%) | 10 (10: 100%) | 10 (10: 100%) | 10 (10: 100%) | 10 (10: 100%) | 10 (10: 100%) | 10 (10: 100%) | 10 (10: 100%) | 9 (9: 90% to less than 100%) | 10 (10: 100%) | 10 (10: 100%) | 10 (10: 100%) | herbicidal efficacy Echinochloa crus-galli (Echinochloa crus-galli; 1g a.i./10a): 10 (10: 100%); herbicidal efficacy Echinochloa crus-galli (Echinochloa crus-galli; 5g a.i./10a): 10 (10: 100%)
2 | C=CCOC(=O)N(C(=O)OCC=C)c1c([N+](=O)[O-])cnn1-c1nn2c(c1Cl)CCCC2 [Compound 15] | – | – | – | – | – | – | – | – | – | – | – | – | – | – | 10 (10: 100%) | 10 (10: 100%) | – | – | – | – | –
3 | CCOC(=O)N(C(=O)OCC)c1c(C#N)cnn1-c1nn2c(c1Br)CCCC2 [Compound 8] | 10 (10: 100%) | 10 (10: 100%) | 10 (10: 100%) | 10 (10: 100%) | 10 (10: 100%) | 10 (10: 100%) | 0 (0 (exponent): 0% to less than 10% (growth inhibition rate)) | 1 (1: 10% to less than 20%) | 9 (9: 90% to less than 100%) | 9 (9: 90% to less than 100%) | 10 (10: 100%) | 10 (10: 100%) | 10 (10: 100%) | 10 (10: 100%) | 10 (10: 100%) | 10 (10: 100%) | 9 (9: 90% to less than 100%) | 9 (9: 90% to less than 100%) | 10 (10: 100%) | 10 (10: 100%) | herbicidal efficacy Echinochloa crus-galli (Echinochloa crus-galli; 1g a.i./10a): 10 (10: 100%); herbicidal efficacy Echinochloa crus-galli (Echinochloa crus-galli; 5g a.i./10a): 10 (10: 100%)
4 | COC(=O)N(C(=O)OC)c1c([N+](=O)[O-])cnn1-c1nn2c(c1Br)CCCC2 [Compound 5] | 10 (10: 100%) | 10 (10: 100%) | 9 (9: 90% to less than 100%) | 10 (10: 100%) | 10 (10: 100%) | 10 (10: 100%) | 1 (1: 10% to less than 20%) | 1 (1: 10% to less than 20%) | 10 (10: 100%) | 10 (10: 100%) | 9 (9: 90% to less than 100%) | 9 (9: 90% to less than 100%) | 10 (10: 100%) | 10 (10: 100%) | 10 (10: 100%) | 9 (9: 90% to less than 100%) | 10 (10: 100%) | 10 (10: 100%) | 10 (10: 100%) | 10 (10: 100%) | herbicidal efficacy Echinochloa crus-galli (Echinochloa crus-galli; 1g a.i./10a): 9 (9: 90% to less than 100%); herbicidal efficacy Echinochloa crus-galli (Echinochloa crus-galli; 5g a.i./10a): 9 (9: 90% to less than 100%)
5 | CC(C)COC(=O)N(C(=O)OCC(C)C)c1c(C#N)cnn1-c1nn2c(c1Cl)CCCC2 [Compound 13] | – | – | – | – | – | – | – | – | – | – | – | – | – | – | 10 (10: 100%) | 10 (10: 100%) | – | – | – | – | –
6 | COC(=O)N(C(=O)OC)c1c([N+](=O)[O-])cnn1-c1nn2c(c1Cl)CCCC2 [Compound 3] | – | – | – | – | – | – | – | – | – | – | – | – | – | – | 10 (10: 100%) | 10 (10: 100%) | – | – | – | – | –
7 | CC(C)OC(=O)N(C(=O)OC(C)C)c1c(C#N)cnn1-c1nn2c(c1Cl)CCCC2 [Compound 12] | – | – | – | – | – | – | – | – | – | – | – | – | – | – | 10 (10: 100%) | 10 (10: 100%) | – | – | – | – | –
8 | CCOC(=O)Nc1c([N+](=O)[O-])cnn1-c1nn2c(c1Cl)CCCC2 [Control agent 2.28, reference compound] | – | – | – | – | – | – | 0 (0 (exponent): 0% to less than 10% (growth inhibition rate)) | 1 (1: 10% to less than 20%) | – | – | – | – | – | – | – | – | – | – | – | – | –
9 | CCOC(=O)N(C(=O)OC)c1c(C#N)cnn1-c1nn2c(c1Cl)CCCC2 [Compound 1, Methyl N-(3-chloro-4,5,6,7-tetrahydropyrazolo[1,5-a]pyridine-2-yl)-4-cyanopyr azol-5-yl)-N-ethoxycarbonyl Carbamate] | 10 (10: 100%) | 10 (10: 100%) | 9 (9: 90% to less than 100%) | 10 (10: 100%) | 10 (10: 100%) | 10 (10: 100%) | – | – | 9 (9: 90% to less than 100%) | 10 (10: 100%) | 9 (9: 90% to less than 100%) | 9 (9: 90% to less than 100%) | 9 (9: 90% to less than 100%) | 9 (9: 90% to less than 100%) | 10 (10: 100%) | 9 (9: 90% to less than 100%) | 9 (9: 90% to less than 100%) | 9 (9: 90% to less than 100%) | 10 (10: 100%) | 10 (10: 100%) | herbicidal efficacy Echinochloa crus-galli (Echinochloa crus-galli; 1g a.i./10a): 9 (9: 90% to less than 100%); herbicidal efficacy Echinochloa crus-galli (Echinochloa crus-galli; 5g a.i./10a): 10 (10: 100%)
